One block for each molecule: values may come before it.
Columns and labels:
B16/F0 murine melanoma = assay: In-vivo tumor uptake and biodistribution; design: species or system C57B16 mice; conditions: mouse, in vivo
Procedure: In-Vivo Tumor Uptake. To study the tumor uptake of ^99mTc-complexes, Tc-(Compound A-D and J-K), in vivo, biodistribution experiments at 1 h and 6 h after their administration were carried out in C57B16 mice with palpable B16 melanoma nodules. The biodistribution data including melanoma/nontumor (M/NT) ratios for selected organs are summarized in Table 4 and 5 as percentage injected dose per gram ([…]).
Animal Studies. All animal experiments were performed in compliance with the Principles of Laboratory Animal Care (NIH publication #85-23, revised 1985). Biodistribution studies and tumor-uptake measurements were performed in C57B16 mice (15 to 20 g) bearing the B16/F0 murine melanoma on the hind limb. See for example the studies described in, which are hereby incorporated by reference, Brandau, W.; Niehoff, T.; Pulawski, P.; Jonas, M.; Dutschka, K.; Sciuk, J.; Coenen, H. H.; Schober, O. Structure Distribution Relationship of Iodine-123-Iodobenzamides as Tracers for the Detection of Melanotic Melanoma. J. Nucl. Med. 1996, 37, 1865-1871; Mohanmmed, A.; Nicholl, C.; Titsch, U.; Eisenhut, M. Radiojodinated N-(Alkylaminoalkyl)-Substituted 4-Methoxy-, 4-Hydroxy-, and 4-Aminobenzamides: Biological Investigations for the Improvement of Melanoma-Imaging Agents. Nucl. Med. Biol. 1997, 24, 373-380; Titsch, U.; Mohammed, A.; Wagner, S.; Oberdorfer, F.; Eisenhut, M. Syntheses of N-(2-Diethylaminoethyl)benzamides Suitable for ^99mTc Complexation. J. Labelled Compd. Radiopharm. 1997, 40, 416-418; Dittmann, H.; Coenen, H. H.; Zölzer, F.; Dutschka, K.; Brandau, W.; Streffer, C. In Vitro Studies on the Cellular Uptake of Melanoma Imaging Aminoalkyl-iodobenzamide Derivatives (ABA). Nucl. Med. Biol. 1999, 26, 51-56; and Michelot, J. M.; Moreau, M. F. C.; Veyre, A. J.; Bonafous, J. F.; Bacin, F. J.; Madelmont, J. C.; Bussiere, F.; Souteyrand, P. A.; Mauclaire, L. P.; Chossat, F. M.; Papon, J. M.; Labarre, P. G.; Kauffmann, Ph.; Plagne, R. J. Phase II Scintigraphic Clinical Trial of Malignant Melanoma and Metastases with Iodine-123-N-(2-Diethylaminoethyl 4-Iodobenzamide). J. Nucl. Med. 1993, 34, 1260-1266. The tumor cells (B16/F0), obtained from ATCC, were washed with PBS and transplanted subcutaneously on the left hind flank by an inoculation of 0.5×10^6 cells (0.1 mL). Ten to 14 days later the animals developed palpable tumor nodules 3 to 5 mm in diameter. The biodistribution studies were carried out by tail-vein injection of 25 to 30 μCi (0.05 to 0.1 mL) of the ^99mTc-labeled complexes Tc-(Compound A-D, H, J, K or M). At the designated time after tail-vein administration, the animals were weighed and sacrificed. The organs and tumors were harvested and, when appropriate, blotted dry, weighed, and counted in a gamma counter along with technetium-99m standards of the injected dose. The results are expressed as % ID/g tissue (Table 4 and 5)

[1] = test system: B16/F0 murine melanoma cells; assay: In-vitro tumor-cell uptake, melanoma cells; type: cell-based; conditions: for decrease in cell uptake, incubation temperature from 37° C. to 4° C.: 4° C. vs 37° C.; for maximal cell uptake: 37° C., B16/F0 cell line
Procedure: (§1) In-Vitro Tumor-Uptake Studies. Tumor-cell uptake studies in B16/F0 murine melanoma cells were performed with complexes Tc-(Compound A-D and H-M) at 37° C. and 4° C. Additionally, tumor-cell uptake of complex Tc-(Compound A) was investigated in another rapidly dividing MCF-7 human breast cancer cell line.
In-Vitro Cell Studies. Murine B16/F0 melanoma cells and human MCF-7 breast cancer cells were obtained from American Type Culture Collection, Manassas Va., (ATCC) and were grown in T-175 flasks in 14 mL Dulbecco's Modified Eagle Medium (D-MEM; Gibco, Life Technology, Gaithersburg, Md.) containing 4500 mg/L D-glucose, L-glutamine, and pyridoxine hydrochloride, 110 mg/L sodium pyruvate, 10% fetal bovine serum (FBS), 0.2% gentamicin and 0.5% penicillin-streptomycin solution. All cells were harvested from cell culture flasks by trypsinization with 1 mL trypsin-EDTA solution (0.25% trypsin, 1 mM EDTA×4 Na) (Gibco). After being washed with 12 mL Dulbecco's Phosphate-Buffered Saline (PBS) (Gibco), pH 7.2 (Ca^2+- and Mg^2+-free; g/L KCl, 0.20; KH2PO4, 0.20; NaCl, 8.00; Na2HPO4, 1.15), the cells were counted and resuspended in 8 mL S-MEM (Gibco) (Ca^2+ free, with reduced Mg^2+ content) and stored at 4° C. until use.
For in-vitro tumor-cell accumulation studies, 5×10^6 cells in polypropylene test tubes were incubated at 37° C. or 4° C., with intermittent agitation with 1-2 μCi (5 μL) ^99mTc-complex Tc-(Compound A-D) in a total volume of 350 μL S-MEM. At appropriate time intervals the tubes were vortexed and 8-μL samples were layered on 350 μL cold FBS in a 400-μL Eppendorf microcentrifuge tube. After centrifugation at 15,000 rpm for 2 min, the tubes were frozen in a dry ice-acetone bath. While still frozen, the bottom tip of the microcentrifuge tube containing the cell pellet was cut and placed in a counting tube. The remaining portion of the tube with the supernatant was placed in a separate counting tube. Both fractions were counted for radioactivity in a γ-counter (WALLAC, 1480 WIZARD 3″™). The amount of supernatant in the cell pellet was determined to be <1% in separate experiments. The percentage cell uptake of the ^99mTc-complex was calculated as: % uptake=[cpm(pellet)]/[cpm(pellet)+cpm(supernatant)]×100

[2] = test system: MCF-7 human breast cancer cell line; assay: In-vitro tumor-cell uptake, breast cancer cells; type: cell-based; conditions: 37° C., MCF-7 cell line
Procedure: as §1
In-Vitro Cell Studies. […] After being washed with 12 mL Dulbecco's Phosphate-Buffered Saline (PBS) (Gibco), pH 7.2 (Ca^2+- and Mg^2+-free; g/L KCl, 0.20; KH2PO4, 0.20; NaCl, 8.00; Na2HPO4, 1.15), the cells were counted and resuspended in 8 mL S-MEM (Gibco) (Ca^2+ free, with reduced Mg^2+ content) and stored at 4° C. until use.
For in-vitro tumor-cell accumulation studies, 5×10^6 cells in polypropylene test tubes were incubated at 37° C. or 4° C., with intermittent agitation with 1-2 μCi (5 μL) ^99mTc-complex Tc-(Compound A-D) in a total volume of 350 μL S-MEM. […] Both fractions were counted for radioactivity in a γ-counter (WALLAC, 1480 WIZARD 3″™). The amount of supernatant in the cell pellet was determined to be <1% in separate experiments. The percentage cell uptake of the ^99mTc-complex was calculated as: % uptake=[cpm(pellet)]/[cpm(pellet)+cpm(supernatant)]×100

B16/F0 cells = assay: Tumor-cell uptake in the presence of DTG; type: cell-based, murine; conditions: 37° C.; for lower tumor-cell uptake after pre-incubation with DTG: DTG 90 μM, 30 min prior; for IC50: read-out: DTG concentration at 50% maximal inhibition of complex uptake, intact B16/F0 cells, DTG as the inhibitor
Source text: J. Labelled Compd. Radiopharm. 1994, 35, 242-244; Vilner, B. J.; John, C. S.; Bowen, W. D. Sigma-I and Sigma-2 Receptors Are Expressed in a Wide Variety of Human and Rodent Tumor Cell Lines. Cancer Res. 1995, 55, 408-413; and John, C. S.; Vilner, B. J.; Gulden, M. E.; Efange, S. M. N.; Langason, R. B.; Moody, T. W.; Bowen, W. D. Synthesis and Pharmacological Characterization of 4-[^125I]-N-(N-Benzylpiperidin-4-yl)-4-iodobenzamide: A High Affinity σ Receptor Ligand for Potential Imaging of Breast Cancer. […] Pre-incubation of the tumor cells with DTG (90 μM), 30 min prior to the uptake experiments with the ^99mTc-complexes, yields a lower tumor-cell uptake for complexes Tc-(Compound A) (29% less), Tc-(Compound C) (33% less), and Tc-(Compound D) (32% less) at 37° C. (FIG. 4). Additional dose-response experiments conducted with intact B16/F0 cells at 37° C. with Tc-(Compound C) and DTG as the inhibitor (FIG. 3) show a DTG concentration-dependent decrease in the uptake of the complex.
The effect of the inhibitor DTG on cell uptake of these complexes was studied by addition of the inhibitor at various concentrations to the cell suspension 30 min prior to addition of the ^99mTc-complexes. Fresh DTG stock solutions were made by dissolving DTG (3.0 mg, 12.5 μmol) in 0.38 mL PBS and 0.12 mL hydrochloric acid (0.1 N) and subjecting the mixture to ultrasound until a clear solution was obtained, followed by the addition of 0.50 mL FBS to produce a neutral solution at pH 7.4. The stock solutions were diluted by an appropriate amount of S-MEM, and aliquots between 5 μL and 25 μL were added to the cell suspension such that the final concentration of DTG was between 0.02 μM and 120 μM in a total cell suspension volume of 350 μL.

[3] = Determination of lipophilicity and pKa values by HPLC; type: physicochemical; conditions: HPLC method
Procedure: The physicochemical parameters of the rhenium complexes, i.e. lipophilicity log P, log D(pH 7.4), and pKa (Table 2) were determined using HPLC methods (Braumann, T.; Grimme, L. H. Determination of Hydrophobic Parameters for Pyridazinone Herbicides by Liquid-Liquid Partition and Reversed-Phase High-Performance Liquid Chromatography. J. Chromatogr. 1981, 206, 7-15; Stytli, C.; Theobald, A. E. Determination of Ionization Constants of Radiopharmaceuticals in Mixed Solvents by HPLC. Appl. Radiat. Isot., 1987, 38, 701-708; Johannsen, B.; Scheunemann, M.; Spies, H.; Brust, P.; Wober, J.; Syhre, R.; Pietzsch, H.-J. Technetium(V) and Rhenium(V) Complexes for 5-HT2A Serotonin Receptor Binding: Structure-Affinity Considerations. Nucl. Med. Biol., 1996, 23, 429-438; and Johannsen, B.; Berger, R.; Brust, P.; Pietzsch, H.-J; Scheunemann, M.; Seifert, S.; Spies, H.; Syhre, R. Structural Modification of Receptor-Binding Technetium-99m Complexes in Order to Improve Brain Uptake. Eur. J. Nucl. Med. 1997, 24, 316-319). […] Since log D(pH 7.4) is a composite measure of log P and pKa, the log D(PH 7.4) of Re-Compound B (1.9) is also higher than that of Re-Compound A (1.1). […] With pKa values >9 for complexes Re-Compound C and Re-Compound D, the resulting low log D(PH 7.4) values of −0.5 (Re-Compound C) and 0.7 (Re-Compound D) are not surprising, since the complexes would exist in a protonated form at pH 7.4.
Determination of Lipophilicity and pKa Values. The lipophilicity and pKa values of all complexes were determined using HPLC methods described previously (Stylli, C.; Theobald, A. E. Determination of Ionization Constants of 4 Radiopharmaceuticals in Mixed Solvents by HPLC. Appl. Radiat. Isot., 1987, 38, 701-708; Johannsen, B.; Scheunemann, M.; Spies, H.; Brust, P.; Wober, J.; Syhre, R.; Pietzsch, H.-J. Technetium(V) and Rhenium(V) Complexes for 5-HT2A Serotonin Receptor Binding: Structure-Affinity Considerations. Nucl. Med. Biol., 1996, 23, 429-438; and Johannsen, B.; Berger, R.; Brust, P.; Pietzsch, H.-J.; Scheunemann, M.; Seifert, S.; Spies, H.; Syhre, R. Structural Modification of Receptor-Binding Technetium-99m Complexes in Order to Improve Brain Uptake. Eur. J. Nucl. Med. 1997, 24, 316-319). […] The mobile phase was acetonitrile:phosphate buffer (0.01 M), 3:1, v/v, with the aqueous buffer adjusted to the desired pH between 3 and 11. The capacity factor (k′) was calculated for each determination (Braumann, T.; Grimme, L. H. Determination of Hydrophobic Parameters for Pyridazinone Herbicides by Liquid-Liquid Partition and Reversed-Phase High-Performance Liquid Chromatography. J. Chromatogr. 1981, 206, 7-15; El Tayer, N.; van der Waterbeemd, H.; Testa, B. Lipophilicity Measurements of Protonated Basic Compounds by Reversed-Phase High-Performance Liquid Chromatography. II. Procedure for the Determination of a Lipophilic Index Measured by Reversed-Phase High Performance Liquid Chromatography. J. Chromatogr. 1985, 320, 305-312; and Minick, D. J.; Frenz, J. H.; Patrick, M. A.; Brent, D. A. A Comprehensive Method for Determining Hydrophobicity Constants by Reversed-Phase High-Performance Liquid Chromatography. J. Med. Chem., 1988, 31, 1923-1933) and the partition coefficient at a given pH (D or log D) were calculated from the equation: log D=a log k′+b where the parameters a and b are predetermined using standard amines. The fitted points of inflection from the sigmoidal DHPLC/pH profiles permit calculation of the pKHPLC(Stylli, C.; Theobald, A. E. Determination of Ionization Constants of Radiopharmaceuticals in Mixed Solvents by HPLC. Appl. Radiat. Isot., 1987, 38, 701-708). The aqueous ionization constants pKa were calculated from the pKHPLC values after correction with a predetermined correction factor obtained using standard amine compounds. Log P values of the neutral complexes were estimated from the respective upper plateau of the sigmoidal log D/pH curve in the alkaline range.

mel/blood ratio (B16/F0 murine melanoma): 19
mel/lung ratio (B16/F0 murine melanoma): 12.7
mel/spleen ratio (B16/F0 murine melanoma): 19
Compound: CCN(CC)CCCN1CC[S][99Tc]2(=[O])[S]CC[N]2C(=O)C1 (centres unmarked) [Tc-(Compound C)]
decrease in cell uptake, incubation temperature from 37° C. to 4° C. [1]: 77%
maximal cell uptake [1]: 62%
maximum cell uptake [2]: 17%
lower tumor-cell uptake after pre-incubation with DTG (B16/F0 cells): 33%

IC50 (B16/F0 cells): 21 µM
Compound: CCN(CC)CCN1CC[S][Tc]2(=[O])[S]CC[N]2C(=O)C1 (centres unmarked) [Tc-(Compound A)]

IC50 (B16/F0 cells): 49 µM
Compound: CCN(CC)CCCN1CC[S][Tc]2(=[O])[S]CC[N]2C(=O)C1 (centres unmarked) [Tc-(Compound C)]

The next lines start with the molecule.

Compound: CCCCN(CCCC)CCCN1CC[S][99Tc]2(=[O])[S]CC[N]2C(=O)C1 (centres unmarked) [Tc-(Compound D)]
decrease in cell uptake, incubation temperature from 37° C. to 4° C. [1]: 23%
maximal cell uptake [1]: 68%
lower tumor-cell uptake after pre-incubation with DTG (B16/F0 cells): 32%

Compound: CCCCN(CCCC)CCN1CC[S][Re]2(=[O])[S]CC[N]2C(=O)C1 (centres unmarked) [Re-Compound B, [ReOAADT]-C2—NBu2]
log P [3]: 3.3
pKa [3]: 7.7
log D(pH 7.4) [3]: 1.9

Compound: CCCCN(CCCC)CCCN1CC[S][Re]2(=[O])[S]CC[N]2C(=O)C1 (centres unmarked) [Re-Compound D, [ReOAADT]-C3—NBu2]
log D(pH 7.4) [3]: 0.7

Compound: CCCCN(CCCC)CCCN1CC[S][Tc]2(=[O])[S]CC[N]2C(=O)C1 (centres unmarked) [Tc-(Compound D)]
IC50 (B16/F0 cells): 52 µM

Compound: CCN(CC)CCN1CC[S][Re]2(=[O])[S]CC[N]2C(=O)C1 (centres unmarked) [Re-Compound A, [ReOAADT]-C2—NEt2]
log P [3]: 1.6
pKa [3]: 7.7
log D(pH 7.4) [3]: 1.1

— patent US7321027B2, “Small technetium-99m and rhenium labeled agents and methods for imaging tumors” (President and Fellows of Harvard College, priority 2000, dated 2008)
